Assay results reported in ChEMBL document CHEMBL1833845, “Potent inhibition of bacterial neuraminidase activity by pterocarpans isolated from the roots of Lespedeza bicolor” (Bioorg Med Chem Lett, 2011).

Columns and labels:
[1] = biological target: T1, Sialidase (Clostridium perfringens, UniProt P10481)
T1 sequence (P10481 whole entry): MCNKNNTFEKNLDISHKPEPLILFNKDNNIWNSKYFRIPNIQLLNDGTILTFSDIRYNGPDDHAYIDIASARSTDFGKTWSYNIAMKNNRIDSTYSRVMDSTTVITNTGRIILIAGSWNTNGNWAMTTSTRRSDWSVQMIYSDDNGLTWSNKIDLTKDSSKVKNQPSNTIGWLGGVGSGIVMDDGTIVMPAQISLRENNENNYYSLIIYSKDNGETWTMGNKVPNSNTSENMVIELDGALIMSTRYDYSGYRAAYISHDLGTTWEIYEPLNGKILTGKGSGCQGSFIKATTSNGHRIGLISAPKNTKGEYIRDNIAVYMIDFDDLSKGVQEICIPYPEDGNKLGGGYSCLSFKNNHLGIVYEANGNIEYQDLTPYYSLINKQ

[2] = biological target: T1, Sialidase; remark: listed apart in the source

SMILES | IC50 [1] [µM] | Ki [2] [µM]
COc1c(CC=C(C)C)c(O)cc2c1[C@@H]1Oc3c(ccc(O)c3CC=C(C)C)[C@@H]1CO2 | 0.09 | 0.11
COc1c(CC=C(C)C)c(O)cc2c1[C@@H]1Oc3c(cc(C)c(O)c3CC=C(C)C)[C@@H]1CO2 [BICOLOSIN A] | 0.32 | 0.16
CC(C)=CCC/C(C)=C/Cc1cc2c(cc1O)OC[C@H]1c3cc(C)c(O)c(CC=C(C)C)c3O[C@@H]21 [BICOLOSIN B] | 1.06 | 1.2
COc1cc(O)c(C/C=C(\C)CCC=C(C)C)c2c1[C@@H]1Oc3cc(O)ccc3[C@@H]1CO2 [BICOLOSIN C] | 0.17 | 0.16
CC(C)=CCc1cc2c(cc1O)OC[C@H]1c3ccc(O)c(CC=C(C)C)c3O[C@@H]21 [ERYBRAEDIN C] | 3.35 | 2.73
CC(C)=CCc1cc2c(cc1O)OCC1c3cc(C)c(O)c(CC=C(C)C)c3OC21 (stereo not drawn) [LESPEBUERGINE G4] | 1.84 | 1.35
O=c1c(O)c(-c2ccc(O)c(O)c2)oc2cc(O)cc(O)c12 [QUERCETIN] | 10.1 | –
